The subject of one assay is p-pRb/S780. Nature of the assay: p-pRb/S780 ELISA Cellular Assay (CDK4 ELISA assay). It is filed as cell-based. The settings on record: cells treated for 24 hrs. The protocol:
Biological Activity p-pRb/S780 ELISA Cellular Assay
Maxisorp plates (Nunc 442404) are coated with 50 ul of 1 ug/mL total phospholated Retinoblast Protein (pRb) antibody (4H1 Cell Signaling 9309L) diluted in DPBS (Phosphate Buffered Saline) overnight at 4° C. The next day plates are blocked with Superblock in TBST (Pierce 37535) for one hour to overnight—changing block once during that time. Cells are plated at 50-60% confluency in a 96 well plate (Corning 3585) in 100 uL complete media (media containing fetal bovine serum (Gibco 1600-044), 2 mM L-Glutamine (Gibco 25030), and 1% Penicillin/Streptomycin (Gibco 15140-122) and grown overnight in a humidified chamber at 37° C. and 5% CO2. Compounds (in DMSO) are diluted in media to create a 7 point dilution series of compound with concentrations ranging from 110 uM to 0.027 uM. 10 ul of the diluted compounds are added to the cells, with final concentrations on cells ranging from 10 uM to 0.002 uM. Cells are treated for 24 hrs in a humidified chamber at 37° C. and 5% CO2. Following compound incubation, cells are lysed with 40 uL/well lysis buffer (50 mM Tris-HCL pH 7.5 (Invitrogen 15567-027), 120 mM NaCl (Promega V4221), 1 mM EDTA (Gibco 15575-038), 6 mM EGTA (Fisher 02783-100), 1% Nonidet P40 (Fluka R02771). Plates are placed on Titerplate shaker (Labline model 4625) for 5 minutes at 4° C. to lyse cells. After lysis, 10 ul of cell lysate and 50 ul 1×PBS/10% Superblock (Gibco 10010 and Pierce 37535) is added to each well of the precoated and blocked Maxisorp plate and allowed to bind at room temperature for 2 hours on Oribtron Rotator II (Boekel Industries Model 260250). Plates are then washed 3× with 1×TBST (Teknova T9201) using Biotek platewasher equipped with a Biostack. The final wash is not aspirated. The final wash is removed by flicking off and tapping plate on paper towels. ppRbS780 antibody (Cell Signaling 9307L) is diluted 1:1000 in 1×PBS/10% Superblock (Gibco 10010 and Pierce 37535) and 50 ul is added to each well. Plates are then incubated 1 hour on Oribtron Rotator II (Boekel Industries Model 260250). Plates are then washed as previously described. Goat anti-rabbit HRP (Promega W401B) is diluted 1:2500 1×PBS/10% Superblock (Gibco 10010 and Pierce 37535) and 50 ul is added to each well. Plates are then incubated 30 minutes on Oribtron Rotator II. Plates are then washed as previously described. 50 uL Ultra TMB ELISA (Pierce 34028) is then added to each well. Plates are incubated 5-20 minutes until blue color develops. 50 ul 2M Sulfuric acid (Mallinckrodt 2468-46) is then added to each well to stop the reaction. Absorbance at 450 nm for each plate is read on Spectramax Plus (Molecular Devices).
(In an ELISA, binding on a coated surface is turned into a signal by an enzyme label.)

A further assay concerns the target hCDK1/B (Homo sapiens, UniProt P06493). The assay is described as follows: hCDK1/B. The assay is classed as biochemical.
A further assay concerns the target CDK4 (Homo sapiens, UniProt P11802). Nature of the assay: CDK4 HTRF. The assay is classed as biochemical. Background: Time-resolved FRET reads energy transfer from a long-lived donor to a nearby acceptor.
Another assay has as its target CDK2 cyA (Homo sapiens, UniProt P24941). Nature of the assay: CDK2 cyA IMAP. It is filed as biochemical.
Where [1] appears, read: Table 2, read-out: p_pRb Cap EL/ IC50_ppRbinh.
[2] abbreviates: Table 2, read-out: CDK4 HTRF/ IC50.
Where [3] appears, read: Table 2, read-out: CDK2cyA IMAP/ IC50.
Setting [4] is: Table 1, read-out: CDK4 ELISA assay IC50.
Setting [5] is: Table 1, read-out: CDK2 cyA IMAP.

Read-outs that look alike come from different tables or passages of the source.

Chain of CDK4 (P11802 whole entry): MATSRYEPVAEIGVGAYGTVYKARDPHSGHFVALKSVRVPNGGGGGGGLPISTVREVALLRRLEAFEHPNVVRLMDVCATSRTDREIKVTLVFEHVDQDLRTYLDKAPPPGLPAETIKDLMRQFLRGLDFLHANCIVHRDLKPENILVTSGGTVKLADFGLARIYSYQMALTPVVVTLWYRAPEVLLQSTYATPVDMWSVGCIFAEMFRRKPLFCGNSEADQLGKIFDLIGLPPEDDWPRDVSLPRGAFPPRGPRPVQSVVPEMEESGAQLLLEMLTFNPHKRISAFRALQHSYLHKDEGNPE
Chain of CDK4 (P24385 whole entry partner): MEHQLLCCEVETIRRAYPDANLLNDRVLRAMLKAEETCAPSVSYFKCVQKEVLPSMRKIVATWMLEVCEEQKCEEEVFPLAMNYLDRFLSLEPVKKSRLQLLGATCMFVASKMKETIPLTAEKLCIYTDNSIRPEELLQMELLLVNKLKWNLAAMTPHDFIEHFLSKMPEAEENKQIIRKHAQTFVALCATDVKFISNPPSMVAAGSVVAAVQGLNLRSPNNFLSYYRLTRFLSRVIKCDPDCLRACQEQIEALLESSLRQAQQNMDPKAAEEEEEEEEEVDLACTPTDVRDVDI
Chain of hCDK1/B (P06493 whole entry): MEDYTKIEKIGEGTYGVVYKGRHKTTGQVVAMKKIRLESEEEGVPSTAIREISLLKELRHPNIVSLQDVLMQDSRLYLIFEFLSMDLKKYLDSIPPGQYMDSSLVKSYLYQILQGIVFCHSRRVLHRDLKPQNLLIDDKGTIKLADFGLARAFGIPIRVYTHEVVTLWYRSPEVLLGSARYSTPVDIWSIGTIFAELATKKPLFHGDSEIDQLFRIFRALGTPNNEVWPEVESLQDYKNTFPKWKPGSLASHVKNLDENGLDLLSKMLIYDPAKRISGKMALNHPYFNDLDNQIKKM
Chain of hCDK1/B (P14635 whole entry partner): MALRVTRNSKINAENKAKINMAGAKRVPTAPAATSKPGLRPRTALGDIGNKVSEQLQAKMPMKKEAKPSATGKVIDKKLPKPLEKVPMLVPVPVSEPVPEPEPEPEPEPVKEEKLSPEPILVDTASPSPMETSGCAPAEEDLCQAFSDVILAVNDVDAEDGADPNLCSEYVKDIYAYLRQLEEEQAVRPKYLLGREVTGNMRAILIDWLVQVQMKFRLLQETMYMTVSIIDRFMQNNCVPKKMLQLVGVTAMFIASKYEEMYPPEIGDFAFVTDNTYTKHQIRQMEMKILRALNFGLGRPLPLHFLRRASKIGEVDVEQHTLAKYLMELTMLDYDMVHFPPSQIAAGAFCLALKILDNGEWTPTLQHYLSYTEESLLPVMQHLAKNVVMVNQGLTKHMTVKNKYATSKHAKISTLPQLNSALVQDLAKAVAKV

For the compound `Cc1n[nH]cc1-c1ccnc(NCc2ccc3c(c2)OCO3)n1` [Example 102], the IC50 in the assay on p-pRb/S780 (setting [1]) is less than 15 µM; at hCDK1/B (Table 2), less than 10 µM; on CDK4 (setting [2]), less than 5 µM; at CDK2 cyA (setting [3]) it was less than 10 µM.
With `Cc1ccccc1CNc1cc(-c2cn[nH]c2C2CCCCCC2)ccn1` [Example 66], the IC50 in the assay on p-pRb/S780 (setting [4]) is less than 15 µM; against hCDK1/B (Table 1), less than 10 µM; at CDK4 (Table 1, read-out: CDK4 HTRF), less than 5 µM; at CDK2 cyA (setting [5]), less than 10 µM.
On to `Cc1n[nH]cc1-c1ccnc(NCC2CCCO2)n1` (stereo not shown) [Example 88], for which the IC50 in the assay on p-pRb/S780 (setting [1]) was less than 15 µM; against hCDK1/B (Table 2) it was less than 15 µM; on CDK4 (setting [2]) it was less than 15 µM; on CDK2 cyA (setting [3]), no less than 15 µM.
On to `CC(C)c1n[nH]cc1-c1ccnc(NC2CCCCC2)n1` [Example 166], for which the IC50 with p-pRb/S780 (setting [1]) was less than 1 µM; at hCDK1/B (Table 2), less than 0.05 µM; at CDK4 (setting [2]), less than 0.05 µM; at CDK2 cyA (setting [3]), less than 0.05 µM.
Regarding `COc1cccc(CNc2nccc(-c3c[nH]nc3C)n2)c1` [Example 107], the IC50 in the assay with p-pRb/S780 (setting [1]) is less than 15 µM; at hCDK1/B (Table 2) it was no less than 15 µM; on CDK4 (setting [2]) it was less than 10 µM; on CDK2 cyA (setting [3]), no less than 15 µM.
Turning to `Cc1ccc(CNc2nccc(-c3c[nH]nc3C)n2)cc1` [Example 117], the IC50 in the assay on p-pRb/S780 (setting [1]) was less than 15 µM; against hCDK1/B (Table 2), no less than 15 µM; on CDK4 (setting [2]), less than 10 µM; at CDK2 cyA (setting [3]), no less than 15 µM.
Turning to `CC(=O)NCCNc1nccc(-c2c[nH]nc2C)n1` [Example 123], the IC50 in the assay on p-pRb/S780 (setting [1]) is less than 15 µM; at hCDK1/B (Table 2), less than 15 µM; on CDK4 (setting [2]), less than 5 µM; on CDK2 cyA (setting [3]) it was less than 15 µM.
For the compound `Cc1n[nH]cc1-c1ccnc(NCc2cccc(C(F)(F)F)c2)n1` [Example 89], the IC50 is less than 15 µM with p-pRb/S780 (setting [1]), less than 10 µM against hCDK1/B (Table 2), less than 5 µM on CDK4 (setting [2]) and less than 10 µM at CDK2 cyA (setting [3]).
With `CC(C)c1[nH]ncc1-c1ccnc(NCc2ccc3c(c2)OCO3)c1` [Example 35], the IC50 with p-pRb/S780 (setting [4]) was less than 15 µM; at hCDK1/B (Table 1) it was less than 5 µM; at CDK4 (Table 1, read-out: CDK4 HTRF) it was less than 5 µM; on CDK2 cyA (setting [5]), less than 5 µM.
Consider `CC(C)c1n[nH]cc1-c1ccnc(NC2CCNCC2)n1` [Example 141], for which the IC50 was less than 5 µM with p-pRb/S780 (setting [1]), less than 0.5 µM against hCDK1/B (Table 2), less than 0.05 µM at CDK4 (setting [2]) and less than 1 µM on CDK2 cyA (setting [3]).
As to `CC(C)c1[nH]ncc1-c1ccnc(NCCOc2ccccc2)c1` [Example 21], the IC50 in the assay with p-pRb/S780 (setting [4]) is less than 15 µM; against hCDK1/B (Table 1) it was less than 10 µM; at CDK4 (Table 1, read-out: CDK4 HTRF), less than 5 µM; on CDK2 cyA (setting [5]) it was less than 10 µM.
For `Cc1n[nH]cc1-c1ccnc(NCC2CCCCC2)n1` [Example 103], the IC50 with p-pRb/S780 (setting [1]) was less than 15 µM; at hCDK1/B (Table 2), less than 10 µM; on CDK4 (setting [2]), less than 5 µM; at CDK2 cyA (setting [3]), less than 10 µM.
For `CC(C)c1[nH]ncc1-c1ccnc(Nc2ccccc2)c1` [Example 48], the IC50 in the assay on p-pRb/S780 (setting [4]) was less than 1 µM; on hCDK1/B (Table 1), less than 0.1 µM; at CDK4 (Table 1, read-out: CDK4 HTRF), less than 0.1 µM; at CDK2 cyA (setting [5]), less than 0.05 µM.
With `Cc1n[nH]cc1-c1ccnc(NCc2ccncc2)n1` [Example 104], the IC50 in the assay on p-pRb/S780 (setting [1]) was less than 15 µM; at hCDK1/B (Table 2) it was less than 15 µM; on CDK4 (setting [2]), less than 5 µM; on CDK2 cyA (setting [3]) it was less than 15 µM.
In the case of `Cc1n[nH]cc1-c1ccnc(NCc2ccco2)n1` [Example 122], the IC50 in the assay with p-pRb/S780 (setting [1]) was less than 15 µM; against hCDK1/B (Table 2), no less than 15 µM; at CDK4 (setting [2]) it was less than 10 µM; at CDK2 cyA (setting [3]) it was no less than 15 µM.
Turning to `Cc1n[nH]cc1-c1ccnc(NC2CCC2)n1` [Example 101], the IC50 was less than 15 µM with p-pRb/S780 (setting [1]), less than 5 µM at hCDK1/B (Table 2), less than 1 µM on CDK4 (setting [2]) and less than 5 µM at CDK2 cyA (setting [3]).
As to `COCCNc1nccc(-c2c[nH]nc2C)n1` [Example 120], the IC50 with p-pRb/S780 (setting [1]) was less than 15 µM; against hCDK1/B (Table 2), no less than 15 µM; at CDK4 (setting [2]), less than 15 µM; at CDK2 cyA (setting [3]) it was no less than 15 µM.
Regarding `Cc1n[nH]cc1-c1ccnc(NCc2ccccn2)n1` [Example 126], the IC50 in the assay on p-pRb/S780 (setting [1]) is less than 15 µM; against hCDK1/B (Table 2), no less than 15 µM; at CDK4 (setting [2]), less than 15 µM; on CDK2 cyA (setting [3]), no less than 15 µM.
Take `Cc1n[nH]cc1-c1ccnc(NCCN2CCOCC2)n1` [Example 99]: the IC50 in the assay with p-pRb/S780 (setting [1]) is less than 15 µM; against hCDK1/B (Table 2), no less than 15 µM; at CDK4 (setting [2]), less than 10 µM; at CDK2 cyA (setting [3]), no less than 15 µM.

(Values after US8367687B2, “Pyrazole derivatives” (Novartis AG, priority 2007, dated 2013).)
